In PMC8007633, “The effect of Aspalathus linearis (Burm.f.) R.Dahlgren and its compounds on tyrosinase and melanogenesis” (Scientific Reports, 2021):
Values after ≈ are worked out from the molar mass of the structure shown. Like-named read-outs stand apart in the source and are kept apart here. Blank lines part the entries; values can stand above or below the compound they belong to. Starred links: 1 amine or outer side, 2 acyl side, 3 side chain; linkers in the order of their positions; H or OH if unused. Positions of bridges follow the written chain, without caps; N, C: chain ends. Non-standard residues stand in square brackets, D forms with d. Residues, ends and D or L forms follow the SMILES beside them. Chains are numbered I, II in the order given. Actinocin(9to1) = Cc1c2oc3c(C)ccc(C(=O)[*:1])c3nc-2c(C(=O)[*:2])c(N)c1=O; NMeV = CN[C@H](C(=O)O)C(C)C; Sar = CNCC(=O)O

Tests used:
[1] = system: human melanoma cells (UCT-Mel1); experiment: Antiproliferative assay (Presto blue, 72 h); format: cell-based; conditions: for IC50 / EC50: Homo sapiens; for EC50 / HillSlope, sigmoidal dose-response best-fit (Table S 10) / LogEC50, sigmoidal dose-response best-fit (Table S 10): variable slope; for EC50: bottom 0, top 100, read-out: EC50, sigmoidal dose-response best-fit (Table S 10)
mushroom tyrosinase [2] = molecular target: T1, mushroom tyrosinase (Agaricus bisporus, UniProt C7FF04); experiment: Diphenolase tyrosinase assay (enzymatic rate, L-dopa as substrate); format: biochemical; conditions: for Tyrosinase activity at 200 µg/mL (fold increase): rate over 30 min at 37 °C versus vehicle control; for Tyrosinase stimulation, fold increase: enzyme rate of the sample divided by enzyme rate of the vehicle control
T1 construct: purchased Sigma-Aldrich Co. LLC, St. Louis, MO, USA

mushroom tyrosinase [3] = molecular target: T1, mushroom tyrosinase; experiment: Tyrosinase enzyme kinetics: change in L-dopa kinetics, type of inhibition; format: biochemical; conditions: for VMAX, Michaelis-Menten plot data of the inhibitors (Figure S 3): L-dopa with inhibitor; for Type of inhibition: enzyme kinetic studies; for Change in L-dopa kinetics, Vmax: maximum enzyme velocity
tyrosinase [4] = conditions: cited from earlier work; for IC50: read-out: Antityrosinase IC50, previously reported
tyrosinase [5] = molecular target: T2, tyrosinase (Agaricus bisporus, UniProt C7FF04); experiment: Tyrosinase enzyme kinetics in the absence of the substrate (subversive substrate properties); format: biochemical, mushroom; conditions: for Vmax (substrate properties): Table 3
T2 construct: purchased Sigma-Aldrich Co. LLC, St. Louis, MO, USA

[6] = system: human melanocytes (UCT-Mel-1); experiment: Masson Fontana assay (melanin produced); format: cell-based; conditions: for Increase in melanin produced: 265 µM (aspalathin 119.82 µg/mL, catechin 76.92 µg/mL); for Mean Diff., Negative vs sample, melanin produced (Table S 11): Dunnett's multiple comparison versus untreated melanocytes
Experimental: The cells were cultured as previously described. The silver nitrate solution was prepared, as described by Kwon-Chung et al.[34]. The cells were fixed and treated with the AgNO3 working solution for 40 min at 56 °C (in the dark). Following incubation, the cells were treated with sodium thiosulphate (52.63 mg/mL) for 1 min and rinsed with water. The cells were counterstained using haematoxylin. The washed cells were dehydrated and fixed on microscope slides. Light microscopy images were taken using a Zeiss Primo Vert light microscope and analysed with ImageJ[34].

[7] = value in brackets, read-out: Antiproliferative IC50 (converted)
[8] = compound as substrate, absence of L-dopa
[9] = Tyrosinase stimulation EC50 ± SD, relative EC50, 50% of maximal response
[10] = Tyrosinase stimulation EC50 ± SD, relative EC50, value in brackets

T2 sequence (C7FF04 1-392 limits assumed): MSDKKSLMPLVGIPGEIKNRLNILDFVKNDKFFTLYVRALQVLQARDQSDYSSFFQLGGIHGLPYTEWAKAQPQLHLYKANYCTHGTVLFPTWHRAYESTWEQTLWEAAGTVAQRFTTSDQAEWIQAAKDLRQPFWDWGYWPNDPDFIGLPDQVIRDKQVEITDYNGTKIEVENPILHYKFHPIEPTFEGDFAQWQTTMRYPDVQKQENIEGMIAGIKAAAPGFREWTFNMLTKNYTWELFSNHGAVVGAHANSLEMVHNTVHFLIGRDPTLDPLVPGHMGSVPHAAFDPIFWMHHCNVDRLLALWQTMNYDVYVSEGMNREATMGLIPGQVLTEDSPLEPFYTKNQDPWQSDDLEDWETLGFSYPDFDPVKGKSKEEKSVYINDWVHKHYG
T1 sequence (C7FF04 1-392 limits assumed): as above

SMILES: Cc1c2oc3c(C)ccc(C(=O)N[C@@H]4C(=O)N[C@H](C(C)C)C(=O)N5CCC[C@H]5C(=O)N(C)CC(=O)N(C)[C@@H](C(C)C)C(=O)O[C@@H]4C)c3nc-2c(C(=O)N[C@@H]2C(=O)N[C@H](C(C)C)C(=O)N3CCC[C@H]3C(=O)N(C)CC(=O)N(C)[C@@H](C(C)C)C(=O)O[C@@H]2C)c(N)c1=O [Actinomycin D, reference compound] (I: T[dV]P[Sar][NMeV] / II: T[dV]P[Sar][NMeV]; ester I:1-I:C, II:1-II:C; linker I:N-II:N via Actinocin(9to1))
- IC50 ([1]; 72 h, read-out: Antiproliferative IC50 ± standard deviation): 0.039 ± 0.002 µg/mL

- Tyrosinase inhibitory activity in words (mushroom tyrosinase [2]): Moderate inhibitory activity
- IC50 (mushroom tyrosinase [2]; read-out: Tyrosinase inhibition IC50 ± SD): 534.9 ± 5.09 µM
- VMAX, Michaelis-Menten plot data of the inhibitors (Figure S 3) (mushroom tyrosinase [3]): 20.56 ± 1.72 µmol/min
- Type of inhibition (mushroom tyrosinase [3]): non-competitive inhibition
SMILES: CCCOC(=O)c1cc(O)c(O)c(O)c1 [n-Propyl gallate (10), n-propyl gallate]

SMILES: O=C(O)/C=C/c1ccccc1 [Cinnamic acid (4), cinnamic acid]
- IC50 (mushroom tyrosinase [2]): 943.6 ± 8.1 µM
- Tyrosinase inhibitory activity in words (mushroom tyrosinase [2]): Moderate inhibitory activity
- VMAX, Michaelis-Menten plot data of the inhibitors (Figure S 3) (mushroom tyrosinase [3]): 16.82 ± 0.37 µmol/min
- Type of inhibition (mushroom tyrosinase [3]): competitive inhibition
- Change in L-dopa kinetics, Vmax (mushroom tyrosinase [3]): 16.82 ± 0.37 µM/min

SMILES: Oc1ccc(/C=C/c2cc(O)cc(O)c2)cc1 [resveratrol]
- Type of tyrosinase inhibition, well-known inhibitors (tyrosinase [4]): non-competitive
- IC50 (tyrosinase [4]): 27.7 ± 1.15 µM

SMILES: O=C(/C=C/c1ccc(O)c(O)c1)O[C@H](Cc1ccc(O)c(O)c1)C(=O)O [Rosmarinic acid (12), rosmarinic acid]
- IC50 (tyrosinase [4]): 4 µM
- IC50 (mushroom tyrosinase [2]): 7.33 ± 3.33 µM
- VMAX, Michaelis-Menten plot data of the inhibitors (Figure S 3) (mushroom tyrosinase [3]): 19.72 ± 1.01 µmol/min
- Type of inhibition (mushroom tyrosinase [3]): competitive inhibition

- IC50 ([1]; concentration where 50% of the cells are viable, 72 h, read-out: Antiproliferative IC50 ± standard deviation): 166.3 ± 1.14 µg/mL
- IC50 [1, 7]: 573 µM
- EC50 [1]: 166 µg/mL (≈ 573 µM)
- Substrate catalytic efficiency, times higher than native substrate L-dopa (tyrosinase [5]): 4 times
- VMAX, subversive substrates (Figure S 5) (tyrosinase [5]; absence of the substrate L-dopa): 382.4 ± 7.03 µmol/min
- Vmax (absence of the substrate) (tyrosinase [5]; compound as substrate): 382.4 ± 7.0 µM/min
- kcat (catalytic constant) (tyrosinase [5]; compound as substrate): 229.7 s⁻¹
- Km (tyrosinase [5]; [8]): 471 µM
- Vmax (substrate properties) (tyrosinase [5]; [8]): 382.4 (± 7.0) mOD/min
- Tyrosinase activity at 200 µg/mL (fold increase) (mushroom tyrosinase [2]): 0.41 fold increase
- Tyrosinase stimulation, fold increase (mushroom tyrosinase [2]): 0.40 fold
- Tyrosinase stimulation, fold increase (mushroom tyrosinase [2]; listed as catechin (3)): 0.4 fold
- EC50 (mushroom tyrosinase [2]; relative EC50, 50% of maximal response, read-out: Tyrosinase stimulation EC50 ± SD (converted)): 494 µM
- EC50 (mushroom tyrosinase [2]; relative EC50, value in brackets, read-out: Tyrosinase stimulation EC50 ± SD (converted)): 494 µM
- Change in L-dopa kinetics, Vmax (mushroom tyrosinase [3]): 382.40 ± 7.03 µM/min
SMILES: Oc1cc(O)c2c(c1)O[C@H](c1ccc(O)c(O)c1)[C@@H](O)C2 [Catechin (3), (+)-catechin]
- HillSlope, sigmoidal dose-response best-fit (Table S 10) [1]: -3.06
- LogEC50, sigmoidal dose-response best-fit (Table S 10) [1]: 2.22
- Masson Fontana % increase in melanin produced ([6]; 100 µg/mL, versus untreated cells): 5.72%
- Increase in melanin produced ([6]; listed as catechin): 4.5%
- Increase in melanin produced ([6]; listed as catechin (3)): approximately 4.5%
- Mean Diff., Negative vs sample, melanin produced (Table S 11) [6]: -15.08

SMILES: O=c1cc(-c2ccc(O)cc2)oc2c([C@@H]3O[C@H](CO)[C@@H](O)[C@H](O)[C@H]3O)c(O)cc(O)c12 [Vitexin (15), vitexin]
- IC50 (mushroom tyrosinase [2]): > 694 µM

SMILES: O=c1c(O[C@@H]2O[C@H](CO)[C@@H](O)[C@H](O)[C@H]2O)c(-c2ccc(O)c(O)c2)oc2cc(O)cc(O)c12 [Isoquercitrin (7), isoquercitrin]
- IC50 (mushroom tyrosinase [2]): > 646 µM
- Type of inhibition (mushroom tyrosinase [3]): competitive inhibition

SMILES: O=C(O)c1ccc(O)cc1 [4-Hydroxybenzoic acid (6), 4-hydroxy benzoic acid]
- IC50 (mushroom tyrosinase [2]): 1868 ± 9.34 µM
- VMAX, Michaelis-Menten plot data of the inhibitors (Figure S 3) (mushroom tyrosinase [3]): 35.00 ± 1.84 µmol/min
- Change in L-dopa kinetics, Vmax (mushroom tyrosinase [3]): 35.00 ± 1.84 µM/min

SMILES: O=C(CCc1ccc(O)c(O)c1)c1c(O)cc(O)c(C2OC(CO)C(O)C(O)C2O)c1O (stereo not drawn) [Aspalathin (1), aspalathin]
- IC50 ([1]; 72 h, concentration where 50% of the cells are viable, 72 h, read-out: Antiproliferative IC50 ± standard deviation): > 200 µg/mL
- IC50 [1, 7]: 482 µM
- EC50 [1]: 218 µg/mL (≈ 481 µM)
- Antiproliferative IC50 ± standard deviation ([1]; concentration where 50% of the cells are viable, 72 h): 217.75 ± 1.23 µg/mL
- HillSlope, sigmoidal dose-response best-fit (Table S 10) [1]: -5.86
- LogEC50, sigmoidal dose-response best-fit (Table S 10) [1]: 2.34
- Substrate catalytic efficiency, times lower than native substrate (tyrosinase [5]): 3–4 times
- Vmax (substrate properties) (tyrosinase [5]; [8]): 68.7 (± 3.5) mOD/min
- Tyrosinase activity at 200 µg/mL (fold increase) (mushroom tyrosinase [2]): 1.11 fold increase
- EC50 (mushroom tyrosinase [2]; [9]): 265 µM
- EC50 (mushroom tyrosinase [2]; [10]): 265 µM
- Tyrosinase stimulation, fold increase (mushroom tyrosinase [2]): 1.10 fold
- Increase in melanin produced ([6]; listed as Aspalathin): approximately 4.5%
- Increase in melanin produced ([6]; listed as aspalathin): 4.5%
- Mean Diff., Negative vs sample, melanin produced (Table S 11) [6]: -8.382
- Change in L-dopa kinetics, Vmax (mushroom tyrosinase [3]): 68.73 ± 3.47 µM/min

SMILES: O=C(O)/C=C/c1ccc(O)cc1 [p-Coumaric acid (9), p-coumaric acid]
- IC50 (mushroom tyrosinase [2]): 153 ± 7.01 µM
- Tyrosinase inhibitory activity in words (mushroom tyrosinase [2]): Moderate inhibitory activity
- VMAX, Michaelis-Menten plot data of the inhibitors (Figure S 3) (mushroom tyrosinase [3]): 17.71 ± 0.66 µmol/min
- Type of inhibition (mushroom tyrosinase [3]): competitive inhibition
- Change in L-dopa kinetics, Vmax (mushroom tyrosinase [3]): 17.71 ± 0.66 µM/min

SMILES: O=C(O)/C=C/c1ccc(O)c(O)c1 [Caffeic acid (2), caffeic acid]
- Vmax (substrate properties) (tyrosinase [5]; [8]): 120.9 (± 15.5) mOD/min
- EC50 (mushroom tyrosinase [2]; [9]): 228 µM
- EC50 (mushroom tyrosinase [2]; [10]): 228 µM

SMILES: Oc1ccc(O)cc1 [hydroquinone]
- IC50 (tyrosinase [4]): 19.8 ± 1.05 µM

SMILES: COc1cc(C(=O)O)cc(OC)c1O [Syringic acid (13), syringic acid]
- IC50 (mushroom tyrosinase [2]): > 1510 µM

SMILES: COc1cc(/C=C/C(=O)O)ccc1O [Ferulic acid (5), ferulic acid]
- IC50 (mushroom tyrosinase [2]): > 1500 µM

- Vmax (substrate properties) (tyrosinase [5]; [8]): 22.8 (± 1.1) mOD/min
- Change in L-dopa kinetics, Vmax (mushroom tyrosinase [3]): 22.82 ± 1.07 µM/min
SMILES: N[C@@H](Cc1ccc(O)c(O)c1)C(=O)O [L-dopa, reference compound]
